The values that follow come from PMC10983004 (Journal of Medicinal Chemistry, 2024).

Series [1] concerns the target TET2CD (Homo sapiens, UniProt Q6N021).
For series [2], the target named is T1, KDM2A (Homo sapiens, UniProt Q9Y2K7).
T1 sequence (Q9Y2K7 1-1162): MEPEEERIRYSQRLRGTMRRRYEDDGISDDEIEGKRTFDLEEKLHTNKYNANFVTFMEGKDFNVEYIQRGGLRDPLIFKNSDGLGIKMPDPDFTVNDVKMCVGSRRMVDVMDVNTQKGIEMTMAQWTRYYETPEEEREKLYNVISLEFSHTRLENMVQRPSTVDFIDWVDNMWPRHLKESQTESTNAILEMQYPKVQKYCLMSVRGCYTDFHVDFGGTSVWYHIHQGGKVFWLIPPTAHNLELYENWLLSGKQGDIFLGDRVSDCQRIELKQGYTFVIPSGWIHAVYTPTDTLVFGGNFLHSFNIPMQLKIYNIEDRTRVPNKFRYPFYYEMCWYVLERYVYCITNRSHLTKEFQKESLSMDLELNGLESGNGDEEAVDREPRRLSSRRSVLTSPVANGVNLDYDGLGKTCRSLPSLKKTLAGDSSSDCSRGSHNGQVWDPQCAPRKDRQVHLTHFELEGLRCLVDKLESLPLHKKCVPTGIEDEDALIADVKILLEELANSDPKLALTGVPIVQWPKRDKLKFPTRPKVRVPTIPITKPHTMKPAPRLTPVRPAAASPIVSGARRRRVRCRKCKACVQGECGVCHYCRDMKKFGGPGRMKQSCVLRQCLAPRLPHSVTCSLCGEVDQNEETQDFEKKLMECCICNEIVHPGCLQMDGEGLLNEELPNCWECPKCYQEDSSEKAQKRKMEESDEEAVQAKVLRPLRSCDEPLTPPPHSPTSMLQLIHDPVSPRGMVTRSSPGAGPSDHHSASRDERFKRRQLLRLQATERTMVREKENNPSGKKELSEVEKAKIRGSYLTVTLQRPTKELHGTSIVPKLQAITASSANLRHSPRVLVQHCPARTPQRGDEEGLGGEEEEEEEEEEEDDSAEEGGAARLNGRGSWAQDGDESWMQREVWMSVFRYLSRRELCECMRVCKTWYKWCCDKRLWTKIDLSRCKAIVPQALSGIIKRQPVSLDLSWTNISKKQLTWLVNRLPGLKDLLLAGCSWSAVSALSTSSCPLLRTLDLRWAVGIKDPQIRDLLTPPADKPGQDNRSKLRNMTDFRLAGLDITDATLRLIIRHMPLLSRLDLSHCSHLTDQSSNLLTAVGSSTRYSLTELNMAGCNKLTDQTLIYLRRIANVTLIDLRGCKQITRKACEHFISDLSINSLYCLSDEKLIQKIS
Conditions: read-out: Ki (calculated) KDM2A; Cheng-Prussoff from reported IC50; ref 75 (SI ref 4).

Series [3] deals with T2, KDM6A (Homo sapiens, UniProt O15550). The conditions noted are these: read-out: Ki (calculated) KDM6A; Cheng-Prussoff from reported IC50; ref SI 8.
In series [4] the target is T3, KDM6B (Homo sapiens, UniProt O15054). Conditions: read-out: Ki (calculated) KDM6B; Cheng-Prussoff from reported IC50; ref SI 8.
Series [5] deals with PHD1. Conditions: ref SI 6 (main 76); cited from earlier work.
Series [6] concerns the target PHD3. Conditions: ref SI 6 (main 76); cited from earlier work.
For series [7], the system named is PHD1, PHD2, PHD3. The conditions noted are these: RCC4/VHLHA, Hep3B, MCF7; western blot; ref SI 4; cited from earlier work. In general terms: In western blotting, separated proteins are transferred to a membrane and probed.
The test system of series [8] is ABH3. The conditions noted are these: U87-MG, U373-MG, HT-1080; western blot; ref SI 11; cited from earlier work.
Series [9] deals with FTO. The conditions noted are these: NOMO-1, U937, MA9.3ITD; dot blot and LC-MS/MS; ref SI 12; cited from earlier work.
In series [10] the test system is BBOX1. The conditions noted are these: read-out: IC50 BBOX1; [2OG] 40 µM, enzyme 25 nM; ref SI 4 (main 75); cited from earlier work.
The target in series [11] is T4, KDM4B (Homo sapiens, UniProt O94953).
T4 sequence (O94953 1-1096): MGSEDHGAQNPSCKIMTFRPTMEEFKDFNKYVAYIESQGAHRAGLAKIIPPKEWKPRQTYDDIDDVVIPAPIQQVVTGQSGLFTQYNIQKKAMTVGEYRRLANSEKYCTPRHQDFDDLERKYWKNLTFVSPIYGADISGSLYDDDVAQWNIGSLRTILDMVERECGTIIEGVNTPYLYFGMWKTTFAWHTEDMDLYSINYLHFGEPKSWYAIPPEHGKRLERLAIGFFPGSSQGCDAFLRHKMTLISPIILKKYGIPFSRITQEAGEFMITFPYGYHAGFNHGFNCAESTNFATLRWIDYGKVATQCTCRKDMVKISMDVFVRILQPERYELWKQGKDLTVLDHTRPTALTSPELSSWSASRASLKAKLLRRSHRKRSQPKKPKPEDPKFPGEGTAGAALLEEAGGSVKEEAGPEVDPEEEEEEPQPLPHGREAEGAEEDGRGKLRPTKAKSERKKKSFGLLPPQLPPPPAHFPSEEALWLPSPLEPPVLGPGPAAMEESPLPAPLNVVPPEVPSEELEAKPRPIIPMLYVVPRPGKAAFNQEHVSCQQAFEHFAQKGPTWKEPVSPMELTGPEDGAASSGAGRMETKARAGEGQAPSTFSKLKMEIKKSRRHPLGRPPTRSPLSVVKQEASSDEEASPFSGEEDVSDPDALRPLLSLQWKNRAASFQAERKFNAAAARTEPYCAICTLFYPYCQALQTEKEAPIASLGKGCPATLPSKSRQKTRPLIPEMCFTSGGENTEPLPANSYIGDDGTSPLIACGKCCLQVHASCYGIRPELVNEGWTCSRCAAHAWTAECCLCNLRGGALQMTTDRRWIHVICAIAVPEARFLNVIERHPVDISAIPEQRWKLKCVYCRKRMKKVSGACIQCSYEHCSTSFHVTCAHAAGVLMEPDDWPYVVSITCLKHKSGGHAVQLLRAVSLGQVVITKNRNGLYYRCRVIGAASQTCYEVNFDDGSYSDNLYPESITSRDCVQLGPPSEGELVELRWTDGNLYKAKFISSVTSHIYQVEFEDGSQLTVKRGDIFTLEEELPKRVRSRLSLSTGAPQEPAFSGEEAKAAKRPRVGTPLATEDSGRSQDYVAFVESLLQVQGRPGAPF
Conditions: read-out: IC50 KDM4B; [2OG] 20 µM; ref SI 8 (main 64); cited from earlier work.

Series [12] deals with KDM5B. The conditions noted are these: read-out: IC50 KDM5B (14CO2 radioactive); [2OG] 40 µM; ref SI 8 (main 64); cited from earlier work.
In series [13] the target is T2, KDM6A. Conditions: read-out: IC50 KDM6A; [2OG] […]; ref SI 8 (main 64); cited from earlier work.
Series [14] deals with T3, KDM6B. The conditions noted are these: read-out: IC50 KDM6B; [2OG] 200 µM; ref SI 8 (main 64); cited from earlier work.
For series [15], the system named is KDM5B. The conditions noted are these: cited from earlier work.
Series [16] deals with T4, KDM4B. Put plainly: biochemical.
Series [17] relates to FIH. The conditions noted are these: read-out: IC50 FIH; [2OG] 100 µM, enzyme 1,000 nM; ref SI 4 (main 75); cited from earlier work.
For series [18], the target named is T5, TET1CD (Homo sapiens, UniProt Q8NFU7).
T5 sequence (Q8NFU7 1418-2136): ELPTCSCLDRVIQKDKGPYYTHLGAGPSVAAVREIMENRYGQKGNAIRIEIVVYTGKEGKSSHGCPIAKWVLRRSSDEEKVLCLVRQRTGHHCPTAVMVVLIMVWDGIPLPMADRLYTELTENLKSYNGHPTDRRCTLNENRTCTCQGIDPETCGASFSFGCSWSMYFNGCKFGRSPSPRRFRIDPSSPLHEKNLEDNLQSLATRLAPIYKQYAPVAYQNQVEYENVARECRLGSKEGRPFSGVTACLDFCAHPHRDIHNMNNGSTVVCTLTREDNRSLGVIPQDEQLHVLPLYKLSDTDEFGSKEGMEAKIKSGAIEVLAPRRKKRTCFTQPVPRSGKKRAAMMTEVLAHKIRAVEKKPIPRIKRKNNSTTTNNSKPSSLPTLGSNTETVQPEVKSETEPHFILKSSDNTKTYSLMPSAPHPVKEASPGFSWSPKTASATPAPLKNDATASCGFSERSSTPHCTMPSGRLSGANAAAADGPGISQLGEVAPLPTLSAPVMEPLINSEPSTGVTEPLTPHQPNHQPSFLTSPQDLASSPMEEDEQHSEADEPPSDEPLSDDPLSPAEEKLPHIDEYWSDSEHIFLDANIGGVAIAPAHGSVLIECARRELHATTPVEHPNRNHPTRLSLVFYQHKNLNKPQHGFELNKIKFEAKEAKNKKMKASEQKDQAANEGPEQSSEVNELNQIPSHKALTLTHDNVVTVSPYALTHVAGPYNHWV

Series [19] can be described thus: in vitro. The conditions noted are these: human, Cellular pCC50 TET1CD, nuclear count by DAPI staining, 24 h; named compound dosed.
Series [20] addresses T5, TET1CD. Put plainly: cell-based. Conditions: U2OS, read-out: % inhibition of TET1 in cells at […].

Broadly, the Ki is a dissociation constant, usually derived from enzyme kinetics or from competition with a known ligand. What is called IC50 is the concentration that gives 50% inhibition. Usually EC50 stands for the concentration that produces a half-maximal response. In general, inhibition refers to the relative decrease from the control value, in per cent.

T2 sequence (O15550 whole entry): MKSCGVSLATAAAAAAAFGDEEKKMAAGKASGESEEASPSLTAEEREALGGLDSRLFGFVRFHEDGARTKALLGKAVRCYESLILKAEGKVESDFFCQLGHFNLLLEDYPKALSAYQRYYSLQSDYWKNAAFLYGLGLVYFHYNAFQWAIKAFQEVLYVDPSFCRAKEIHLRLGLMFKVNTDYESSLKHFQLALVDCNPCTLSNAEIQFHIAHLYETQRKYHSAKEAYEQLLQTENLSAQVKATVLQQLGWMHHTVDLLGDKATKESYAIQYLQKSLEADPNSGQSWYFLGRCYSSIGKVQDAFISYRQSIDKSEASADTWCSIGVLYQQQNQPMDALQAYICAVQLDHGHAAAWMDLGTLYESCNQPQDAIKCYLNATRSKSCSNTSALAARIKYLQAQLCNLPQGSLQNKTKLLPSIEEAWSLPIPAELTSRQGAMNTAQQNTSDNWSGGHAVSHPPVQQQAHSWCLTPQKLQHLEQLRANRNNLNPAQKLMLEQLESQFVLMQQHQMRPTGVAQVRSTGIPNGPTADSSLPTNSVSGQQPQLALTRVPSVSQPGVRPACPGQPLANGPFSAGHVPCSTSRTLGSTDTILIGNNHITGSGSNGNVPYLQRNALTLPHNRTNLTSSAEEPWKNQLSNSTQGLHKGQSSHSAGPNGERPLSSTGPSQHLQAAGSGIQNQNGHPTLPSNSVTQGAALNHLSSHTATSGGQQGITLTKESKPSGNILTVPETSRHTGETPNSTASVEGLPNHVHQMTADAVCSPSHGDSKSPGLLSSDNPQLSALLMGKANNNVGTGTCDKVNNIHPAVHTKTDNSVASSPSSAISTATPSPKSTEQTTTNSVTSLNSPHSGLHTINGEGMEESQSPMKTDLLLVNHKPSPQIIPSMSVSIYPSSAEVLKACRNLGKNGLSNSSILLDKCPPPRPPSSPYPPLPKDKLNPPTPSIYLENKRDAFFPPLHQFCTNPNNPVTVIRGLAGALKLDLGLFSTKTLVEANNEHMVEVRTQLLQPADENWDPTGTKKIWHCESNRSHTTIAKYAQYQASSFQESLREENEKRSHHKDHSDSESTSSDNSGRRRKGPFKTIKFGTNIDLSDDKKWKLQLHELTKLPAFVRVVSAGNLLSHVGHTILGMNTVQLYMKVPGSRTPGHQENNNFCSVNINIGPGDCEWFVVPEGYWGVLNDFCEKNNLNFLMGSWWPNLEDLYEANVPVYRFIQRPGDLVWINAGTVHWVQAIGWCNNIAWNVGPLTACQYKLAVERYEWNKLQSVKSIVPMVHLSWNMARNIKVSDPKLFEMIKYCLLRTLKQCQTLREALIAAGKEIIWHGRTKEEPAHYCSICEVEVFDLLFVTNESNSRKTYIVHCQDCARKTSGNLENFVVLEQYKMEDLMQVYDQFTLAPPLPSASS
T3 sequence (O15054 whole entry): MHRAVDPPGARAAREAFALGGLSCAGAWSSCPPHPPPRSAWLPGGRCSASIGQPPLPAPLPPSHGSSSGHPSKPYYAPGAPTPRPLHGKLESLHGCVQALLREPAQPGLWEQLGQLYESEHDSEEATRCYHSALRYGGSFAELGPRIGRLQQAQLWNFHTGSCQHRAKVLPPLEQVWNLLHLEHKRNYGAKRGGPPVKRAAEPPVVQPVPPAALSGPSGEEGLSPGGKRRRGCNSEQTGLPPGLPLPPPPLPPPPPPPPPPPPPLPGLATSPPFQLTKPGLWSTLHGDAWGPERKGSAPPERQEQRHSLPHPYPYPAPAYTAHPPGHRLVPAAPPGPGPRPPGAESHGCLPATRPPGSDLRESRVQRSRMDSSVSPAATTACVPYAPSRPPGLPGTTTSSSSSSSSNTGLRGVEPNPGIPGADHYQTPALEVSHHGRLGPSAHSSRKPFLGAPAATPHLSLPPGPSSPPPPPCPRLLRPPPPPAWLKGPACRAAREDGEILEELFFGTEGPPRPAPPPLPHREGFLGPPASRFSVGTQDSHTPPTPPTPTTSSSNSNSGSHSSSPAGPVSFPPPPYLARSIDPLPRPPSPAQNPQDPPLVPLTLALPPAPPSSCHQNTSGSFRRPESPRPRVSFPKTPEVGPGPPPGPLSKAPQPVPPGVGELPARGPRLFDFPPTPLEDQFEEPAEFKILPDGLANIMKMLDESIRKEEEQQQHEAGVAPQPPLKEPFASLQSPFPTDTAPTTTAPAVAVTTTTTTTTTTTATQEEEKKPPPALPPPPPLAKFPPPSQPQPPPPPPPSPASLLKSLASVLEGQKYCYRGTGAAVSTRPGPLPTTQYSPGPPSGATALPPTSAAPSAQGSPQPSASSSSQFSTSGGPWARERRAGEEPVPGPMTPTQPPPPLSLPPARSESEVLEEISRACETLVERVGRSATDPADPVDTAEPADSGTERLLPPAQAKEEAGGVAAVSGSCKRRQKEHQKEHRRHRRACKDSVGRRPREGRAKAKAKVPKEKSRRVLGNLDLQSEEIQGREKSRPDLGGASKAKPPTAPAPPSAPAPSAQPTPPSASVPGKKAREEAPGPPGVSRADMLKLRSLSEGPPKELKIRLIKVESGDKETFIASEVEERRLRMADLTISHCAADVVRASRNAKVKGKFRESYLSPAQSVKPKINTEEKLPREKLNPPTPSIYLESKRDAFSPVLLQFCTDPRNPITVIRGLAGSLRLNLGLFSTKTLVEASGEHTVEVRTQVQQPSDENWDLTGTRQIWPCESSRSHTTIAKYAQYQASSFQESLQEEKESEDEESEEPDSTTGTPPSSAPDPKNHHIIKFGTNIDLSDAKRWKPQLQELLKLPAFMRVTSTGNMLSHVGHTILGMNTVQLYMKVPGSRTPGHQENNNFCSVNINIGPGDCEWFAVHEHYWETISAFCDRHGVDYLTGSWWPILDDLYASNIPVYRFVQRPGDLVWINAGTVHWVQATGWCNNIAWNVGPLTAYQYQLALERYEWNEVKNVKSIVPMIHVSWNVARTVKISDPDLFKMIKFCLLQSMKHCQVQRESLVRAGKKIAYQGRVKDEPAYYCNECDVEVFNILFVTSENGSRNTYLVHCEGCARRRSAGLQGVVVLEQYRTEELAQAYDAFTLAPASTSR

In the case of `O=C(O)CC[C@@H](O)C(=O)O` [R-2HG, (2R)-hydroxyglutarate], the “α-value TET2CD” value in series [1] stood at 11 ± 13. In addition, the Ki is 74 µM in series [2]; 43 µM in series [3]; 89 µM in [4]; 1150 µM in series [5]; 90 µM in [6]; 53 µM in [16]. The “cellular inhibition PHD1–3 (in words)” value in series [7] is “Putative inhibition of PHD”. Moreover, the “cellular inhibition ABH3 (in words)” value in series [8] is “Inhibition”. In addition, in [9], the “cellular inhibition FTO (in words)” value is on record as “Inhibition”. In addition, the IC50 in series [10] is 13200 µM; in [11], 150 µM; in series [12], […]; in [13], 180 µM; in series [14] it was 350 µM. Further, the “cellular inhibition KDM5B at 2.0 mM (in words)” value in [15] is listed as “No inhibition”.

For `O=C(O)CC[C@H](O)C(=O)O` [S-2HG, S-2-hydroxyglutarate], the results for the Ki in series [3], in series [4] and in series [16] were 43 µM, 191 µM and 158 µM, respectively. Moreover, the IC50 was 189 µM in [17]; 142 µM in series [10]; 450 µM in series [11]; 180 µM in series [13]; 750 µM in [14]. Also, in [15] (U2OS, 1.0 mM, immunofluorescence, ref SI 10), the “cellular inhibition KDM5B at 1.0 mM (in words)” value is given as “No inhibition”.

Consider `CCCCCCCCOC(=O)[C@H](O)CCC(=O)O` [octyl-(R)-2HG, R-Octyl-2-hydroxyglutarate], for which the EC50 in series [18] was approximately 1500 µM. Besides, the “Cellular pEC50 TET1CD” value in series [18] (U2OS, 24 h with Dox induction, 5hmC IF, named compound dosed, replicates in parentheses) is 2.83 ± 0.09 (3). Also, the CC50 at 24 h in [19] is more than 2000 µM. The inhibition at 1500 µM in series [20] is approximately 50%.
